Measurements: ChEMBL document CHEMBL4130431, “Synthesis and Evaluation of Dolastatin 10 Analogues Containing Heteroatoms on the Amino Acid Side Chains” (2017)
Activity calls are given as the source filed them. No cut-off for these calls is given here. Non-standard residues stand in square brackets, D forms with d. Residues, ends and D or L forms follow the SMILES beside them. *: point of attachment. Dolaproine = CO[C@@H]([C@@H]1CCCN1)[C@@H](C)C(=O)O; Abu(3S-N3) = C[C@H](N=[N+]=[N-])[C@H](N)C(=O)O; Dil = CC[C@H](C)[C@H](NC)[C@@H](CC(=O)O)OC; Abu(3S-NH2) = C[C@H](N)[C@H](N)C(=O)O; Dap(N3) = [N-]=[N+]=NC[C@H](N)C(=O)O; NMe2Val = CC(C)[C@@H](C(=O)*)N(C)C; Aha = [N-]=[N+]=NCC[C@H](N)C(=O)O; Pra = C#CC[C@H](N)C(=O)O; Dab = NCC[C@H](N)C(=O)O; Dap = NC[C@H](N)C(=O)O; NHtBu = CC(C)(C)N*; OtBu = CC(C)(C)O*

What was measured:
HCC1954 = assay: Growth inhibition of human HCC1954 cells after 4 to 6 days by Presto blue assay; assay type: functional
PC-3 = assay: Growth inhibition of human PC3 cells after 4 to 6 days by Presto blue assay; assay type: functional
Bos taurus = species: Bos taurus; assay: Inhibition of bovine brain tubulin polymerization at 10 uM after 60 mins by spectrophotometric method

## CC[C@H](C)[C@@H]([C@@H](CC(=O)N1CCC[C@H]1[C@H](OC)[C@@H](C)C(=O)NCCc1ccccn1)OC)N(C)C(=O)[C@@H](NC(=O)[C@H](C(C)C)N(C)C)[C@@H](C)O
HCC1954
  GI50: 21 nM

## CC[C@H](C)[C@@H]([C@@H](CC(=O)N1CCC[C@H]1[C@H](OC)[C@@H](C)C(=O)N[C@H](C)[C@@H](O)c1ccccc1)OC)N(C)C(=O)[C@@H](NC(=O)[C@H](C(C)C)N(C)C)[C@H](C)N=[N+]=[N-]
PC-3
  GI50: 50 nM
HCC1954
  GI50: 34 nM

## CC[C@H](C)[C@@H]([C@@H](CC(=O)N1CCC[C@H]1[C@H](OC)[C@@H](C)C(=O)N[C@@H](Cc1ccccc1)c1nnn[nH]1)OC)N(C)C(=O)[C@@H](NC(=O)[C@H](C(C)C)N(C)C)[C@H](C)N=[N+]=[N-]
Bos taurus
  inhibition: Active
PC-3
  GI50: 41 nM
HCC1954
  GI50: 27 nM

## CC[C@H](C)[C@@H]([C@@H](CC(=O)N1CCC[C@H]1[C@H](OC)[C@@H](C)C(=O)NCCc1ccccc1Cl)OC)N(C)C(=O)[C@@H](NC(=O)[C@H](C(C)C)N(C)C)[C@H](C)N=[N+]=[N-]
PC-3
  GI50: 34 nM
HCC1954
  GI50: 13 nM

## CC[C@H](C)[C@@H]([C@@H](CC(=O)N1CCC[C@H]1[C@H](OC)[C@@H](C)C(=O)NCCc1ccccc1)OC)N(C)C(=O)[C@@H](NC(=O)[C@H](C(C)C)N(C)C)[C@H](C)N=[N+]=[N-]
PC-3
  GI50: 4.7 nM
HCC1954
  GI50: 3.1 nM

## CC[C@H](C)[C@@H]([C@@H](CC(=O)N1CCC[C@H]1[C@H](OC)[C@@H](C)C(=O)NCCc1ccccn1)OC)N(C)C(=O)[C@@H](NC(=O)[C@H](C(C)C)N(C)C)[C@H](C)N=[N+]=[N-]
PC-3
  GI50: 5.1 nM
HCC1954
  GI50: 3.7 nM

## CC[C@H](C)[C@@H]([C@@H](CC(=O)N1CCC[C@H]1[C@H](OC)[C@@H](C)C(=O)NCCc1ccc(Cl)cc1)OC)N(C)C(=O)[C@@H](NC(=O)[C@H](C(C)C)N(C)C)[C@H](C)N=[N+]=[N-]
PC-3
  GI50: 40 nM
HCC1954
  GI50: 33 nM

## CC[C@H](C)[C@@H]([C@@H](CC(=O)N1CCC[C@H]1[C@H](OC)[C@@H](C)C(=O)N[C@@H](Cc1ccccc1)c1nccs1)OC)N(C)C(=O)[C@@H](NC(=O)[C@H](C(C)C)N(C)C)[C@H](C)N=[N+]=[N-]
Bos taurus
  inhibition: Active
PC-3
  GI50: 33 nM
HCC1954
  GI50: 18 nM

## CC[C@H](C)[C@@H]([C@@H](CC(=O)N1CCC[C@H]1[C@H](OC)[C@@H](C)C(=O)NCCc1ccccn1)OC)N(C)C(=O)[C@H](CO)NC(=O)[C@H](C(C)C)N(C)C
PC-3
  GI50: > 1000 nM
HCC1954
  GI50: > 1000 nM

## CC[C@H](C)[C@@H]([C@@H](CC(=O)N1CCC[C@H]1[C@H](OC)[C@@H](C)C(=O)N[C@@H](Cc1ccccc1)C(=O)OC)OC)N(C)C(=O)[C@H](CS)NC(=O)[C@H](C(C)C)N(C)C (NMe2Val-C[Dil][Dolaproine]F-OMe)
PC-3
  GI50: 3.8 nM
HCC1954
  GI50: 3.2 nM

## CC[C@H](C)[C@@H]([C@@H](CC(=O)N1CCC[C@H]1[C@H](OC)[C@@H](C)C(=O)N[C@@H](Cc1ccccc1)C(=O)OC)OC)N(C)C(=O)[C@H](CC(=O)O)NC(=O)[C@H](C(C)C)N(C)C (NMe2Val-D[Dil][Dolaproine]F-OMe)
PC-3
  GI50: 610 nM
HCC1954
  GI50: > 1000 nM

## CC[C@H](C)[C@@H]([C@@H](CC(=O)N1CCC[C@H]1[C@H](OC)[C@@H](C)C(=O)N[C@@H](Cc1ccccc1)C(=O)OC)OC)N(C)C(=O)[C@H](CCCCN)NC(=O)[C@H](C(C)C)N(C)C (NMe2Val-K[Dil][Dolaproine]F-OMe)
HCC1954
  GI50: 340 nM

## CC[C@H](C)[C@@H]([C@@H](CC(=O)N1CCC[C@H]1[C@H](OC)[C@@H](C)C(=O)N[C@@H](Cc1ccccc1)C(=O)O)OC)N(C)C(=O)[C@H](CO)NC(=O)[C@H](C(C)C)N(C)C (NMe2Val-S[Dil][Dolaproine]F-OH)
PC-3
  GI50: 19 nM
HCC1954
  GI50: 4.4 nM

## CC[C@H](C)[C@@H]([C@@H](CC(=O)N1CCC[C@H]1[C@H](OC)[C@@H](C)C(=O)N[C@@H](Cc1ccccc1)C(=O)OC)OC)N(C)C(=O)[C@H](CO)NC(=O)[C@H](C(C)C)N(C)C (NMe2Val-S[Dil][Dolaproine]F-OMe)
PC-3
  GI50: 1.2 nM
HCC1954
  GI50: 0.34 nM

## CC[C@H](C)[C@@H]([C@@H](CC(=O)N1CCC[C@H]1[C@H](OC)[C@@H](C)C(=O)N[C@@H](Cc1ccccc1)C(=O)O)OC)N(C)C(=O)[C@@H](NC(=O)[C@H](C(C)C)N(C)C)[C@@H](C)O (NMe2Val-T[Dil][Dolaproine]F-OH)
PC-3
  GI50: 5 nM
HCC1954
  GI50: 3.5 nM

## CC[C@H](C)[C@@H]([C@@H](CC(=O)N1CCC[C@H]1[C@H](OC)[C@@H](C)C(=O)N[C@@H](Cc1ccccc1)C(=O)OC)OC)N(C)C(=O)[C@@H](NC(=O)[C@H](C(C)C)N(C)C)[C@@H](C)O (NMe2Val-T[Dil][Dolaproine]F-OMe)
PC-3
  GI50: 0.38 nM
HCC1954
  GI50: 0.16 nM

## CC[C@H](C)[C@@H]([C@@H](CC(=O)N1CCC[C@H]1[C@H](OC)[C@@H](C)C(=O)N[C@@H](Cc1ccccc1)C(N)=O)OC)N(C)C(=O)[C@@H](NC(=O)[C@H](C(C)C)N(C)C)[C@H](C)N=[N+]=[N-] (NMe2Val-[Abu(3S-N3)][Dil][Dolaproine]F-NH2)
PC-3
  GI50: 1.7 nM
HCC1954
  GI50: 0.4 nM

## CC[C@H](C)[C@@H]([C@@H](CC(=O)N1CCC[C@H]1[C@H](OC)[C@@H](C)C(=O)N[C@@H](Cc1ccccc1)C(=O)NC(C)(C)C)OC)N(C)C(=O)[C@@H](NC(=O)[C@H](C(C)C)N(C)C)[C@H](C)N=[N+]=[N-] (NMe2Val-[Abu(3S-N3)][Dil][Dolaproine]F-NHtBu)
PC-3
  GI50: 1.2 nM
HCC1954
  GI50: 0.4 nM

## CC[C@H](C)[C@@H]([C@@H](CC(=O)N1CCC[C@H]1[C@H](OC)[C@@H](C)C(=O)N[C@@H](Cc1ccccc1)C(=O)O)OC)N(C)C(=O)[C@@H](NC(=O)[C@H](C(C)C)N(C)C)[C@H](C)N=[N+]=[N-] (NMe2Val-[Abu(3S-N3)][Dil][Dolaproine]F-OH)
PC-3
  GI50: > 1000 nM
HCC1954
  GI50: > 1000 nM

## CC[C@H](C)[C@@H]([C@@H](CC(=O)N1CCC[C@H]1[C@H](OC)[C@@H](C)C(=O)N[C@@H](Cc1ccccc1)C(=O)OC)OC)N(C)C(=O)[C@@H](NC(=O)[C@H](C(C)C)N(C)C)[C@H](C)N=[N+]=[N-] (NMe2Val-[Abu(3S-N3)][Dil][Dolaproine]F-OMe)
PC-3
  GI50: 0.093 nM
HCC1954
  GI50: 0.041 nM

## CC[C@H](C)[C@@H]([C@@H](CC(=O)N1CCC[C@H]1[C@H](OC)[C@@H](C)C(=O)N[C@@H](Cc1ccccc1)C(=O)OC(C)(C)C)OC)N(C)C(=O)[C@@H](NC(=O)[C@H](C(C)C)N(C)C)[C@H](C)N=[N+]=[N-] (NMe2Val-[Abu(3S-N3)][Dil][Dolaproine]F-OtBu)
PC-3
  GI50: 0.045 nM
HCC1954
  GI50: 0.089 nM

## CC[C@H](C)[C@@H]([C@@H](CC(=O)N1CCC[C@H]1[C@H](OC)[C@@H](C)C(=O)N[C@@H](Cc1ccccc1)C(=O)O)OC)N(C)C(=O)[C@@H](NC(=O)[C@H](C(C)C)N(C)C)[C@H](C)N (NMe2Val-[Abu(3S-NH2)][Dil][Dolaproine]F-OH)
PC-3
  GI50: 11 nM
HCC1954
  GI50: 2.5 nM

## CC[C@H](C)[C@@H]([C@@H](CC(=O)N1CCC[C@H]1[C@H](OC)[C@@H](C)C(=O)N[C@@H](Cc1ccccc1)C(=O)OC)OC)N(C)C(=O)[C@@H](NC(=O)[C@H](C(C)C)N(C)C)[C@H](C)N (NMe2Val-[Abu(3S-NH2)][Dil][Dolaproine]F-OMe)
PC-3
  GI50: 0.54 nM
HCC1954
  GI50: 0.076 nM

## CC[C@H](C)[C@@H]([C@@H](CC(=O)N1CCC[C@H]1[C@H](OC)[C@@H](C)C(=O)N[C@@H](Cc1ccccc1)C(=O)OC)OC)N(C)C(=O)[C@H](CCN=[N+]=[N-])NC(=O)[C@H](C(C)C)N(C)C (NMe2Val-[Aha][Dil][Dolaproine]F-OMe)
PC-3
  GI50: 1.1 nM
HCC1954
  GI50: 0.43 nM

## CC[C@H](C)[C@@H]([C@@H](CC(=O)N1CCC[C@H]1[C@H](OC)[C@@H](C)C(=O)N[C@@H](Cc1ccccc1)C(=O)OC)OC)N(C)C(=O)[C@H](CCN)NC(=O)[C@H](C(C)C)N(C)C (NMe2Val-[Dab][Dil][Dolaproine]F-OMe)
PC-3
  GI50: > 1000 nM
HCC1954
  GI50: > 1000 nM

## CC[C@H](C)[C@@H]([C@@H](CC(=O)N1CCC[C@H]1[C@H](OC)[C@@H](C)C(=O)N[C@@H](Cc1ccccc1)C(=O)OC)OC)N(C)C(=O)[C@H](CN=[N+]=[N-])NC(=O)[C@H](C(C)C)N(C)C (NMe2Val-[Dap(N3)][Dil][Dolaproine]F-OMe)
PC-3
  GI50: 0.11 nM
HCC1954
  GI50: 0.036 nM

## CC[C@H](C)[C@@H]([C@@H](CC(=O)N1CCC[C@H]1[C@H](OC)[C@@H](C)C(=O)N[C@@H](Cc1ccccc1)C(=O)OC)OC)N(C)C(=O)[C@H](CN)NC(=O)[C@H](C(C)C)N(C)C (NMe2Val-[Dap][Dil][Dolaproine]F-OMe)
PC-3
  GI50: 20 nM
HCC1954
  GI50: 3.5 nM

## C#CC[C@H](NC(=O)[C@H](C(C)C)N(C)C)C(=O)N(C)[C@@H]([C@@H](C)CC)[C@@H](CC(=O)N1CCC[C@H]1[C@H](OC)[C@@H](C)C(=O)N[C@@H](Cc1ccccc1)C(=O)OC)OC (NMe2Val-[Pra][Dil][Dolaproine]F-OMe)
PC-3
  GI50: 0.36 nM
HCC1954
  GI50: 0.16 nM
